In patent publication US9566290B2, “Boron-containing small molecules” (Anacor Pharmaceuticals, Inc., priority 2005, dated 2017):
≈ marks a conversion by molar mass, not a printed value. Read-outs that look alike come from different tables or passages of the source. Blank lines part the entries; values can stand above or below the compound they belong to.

What was measured:
[1] = test system: Saccharomyces cerevisiae strain ATCC 201388; experiment: MIC (NCCLS M27, YPD or synthetic defined media), haploid parental strain; format: cell-based
Procedure: (§1) The haploid Saccharomyces cerevisiae strain ATCC 201388 was used in the selection of C10 resistant mutants. Spontaneous and EMS-induced resistant mutants were isolated from YPD agar plates containing 4×, 8×, 16×MIC of C10. All minimal inhibitory concentrations (MIC) were determined using NCCLS protocol M27 with the exception of using YPD or synthetic defined media. All yeast and molecular genetic manipulations were essentially performed as described by Guthrie C., et al., Methods in Enzymology, 350: Part B, (2002).
(§2) The minimal inhibitory concentration (MIC) was essentially performed following the NCCLS guidelines outlined in the M27 protocol with the exception of using YPD or synthetic defined media (SDM).

[2] = test system: S. cerevisiae C10 resistant mutants (CDC60 editing domain mutations); experiment: MIC (NCCLS M27), spontaneous and EMS induced C10 resistant mutants; format: cell-based, Saccharomyces cerevisiae
Procedure: as §1
Resistant mutants appeared after 2 d incubation at 30° C. Frequency of resistance was determined by dividing the number of resistant mutants by the total number of cells plated as determined by plating dilutions of the overnight culture on YPD plates.
A 2.5 mL of the overnight culture, which was grown in YPD media, was centrifuged at 700×g for 5 minutes. The cell pellet was resuspended in 10 mL 50 mM potassium phosphate buffer, pH 7.0. The cell suspension was centrifuged again and the cell pellet was resuspended in phosphate buffer to obtain a cell density of 5×10^7 cells/mL as determined by counting the cells using a Petroff Hausser Counting Chamber (Horsham, Pa. USA). The cell suspension was shaken with 300 μL of EMS (Alfa Aesar, Ward Hill, Mass., USA) for 30 min. at 30° C. The mutagenesis was stopped by adding 10% (w/v) sodium thiosulfate (Sigma-Aldrich, St. Louis, Mo., USA), and the cells were pelleted by centrifugation at 700×g for 5 min. and resuspended in 1 mL sterile H2O. This was repeated once more before the cells were plated on YPD agar plates containing 1.6 μg/mL of C10.
as §2

[3] = format: in vitro ADME, human
Procedure: C10, 5-fluoro-1,3-dihydro-1-phenyl-2,1-benzoxaborole, C1, and 5-fluoro-1,3-dihydro-1-(3-hydroxymethylphenyl)-2,1-benzoxaborole, formulated at 10% w/v in ethanol, were tested. A single aliquot (10 μl) of each formulation was dosed to the top of human nail plates using the nail penetration procedure described below, and allowed to stand for 3-days. The dosed area was washed, and then the cotton ball bed supporting the nail and the nail samples were collected at the end of the incubation period, stored at 4° C. and analyzed for drug using LC/MS/MS.
Details of the nail incubation have been previously described^9, 10. […] The supporting cotton ball under the nail was wetted by normal saline providing moisture for the nail plate, and the degree of hydration was monitored and controlled during the experiment. […]
LC/MS/MS (API3000, Applied Biosystems, Foster City, Calif.) was used to quantitate the amounts of non-radiolabeled oxaboroles, C10, 5-fluoro-1,3-dihydro-1-phenyl-2,1-benzoxaborole, C1, and 5-fluoro-1,3-dihydro-1-(3-hydroxymethylphenyl)-2,1-benzoxaborole in samples from the nail penetration studies. […] After centrifugation, the filtrate from the cotton ball samples was transferred to autosampler vials and analyzed by LC/MS/MS. […]

[4] = test system: S. cerevisiae ATCC201388 bearing pRS425 or CDC60 on pRS425; experiment: MIC with over-expression of wild type CDC60; format: cell-based, Saccharomyces cerevisiae; conditions: Saccharomyces cerevisiae
Excerpt: as §2
A 4.0 kb BamH I-Sal I DNA fragment containing the entire CDC60 open reading frame (ORF) and 700 bp of upstream sequence was amplified using KOD DNA polymerase, S. cerevisiae genomic DNA (Novagen, Madison, Wis., USA), and the primers GAGGGATCCGGTTAGTTTTAGTTCGCGAGTGACCTG and GAGGTCGACGATTTCTGGTTGCTGTTTATTGATCTT (Operon, Alameda, Calif., USA). This DNA fragment was then cloned into the […] multi-copy plasmid pRS425, and transformed into S. cerevisiae ATCC201388 (Gietz, R D et al., Methods in Enzymology 305: 87-96 (2002)).

[5] = Table 2, C10 resistant mutant (C)
[6] = Table 2, C10 resistant mutant (G)
[7] = Table 2, C10 resistant mutant (H)
[8] = Saccharomyces cerevisiae, ATCC201388, Table 2, ATCC201388, read-out: MIC
[9] = Saccharomyces cerevisiae, Table 2, C10 resistant mutant (C)
[10] = Saccharomyces cerevisiae, Table 2, C10 resistant mutant (G)
[11] = Saccharomyces cerevisiae, Table 2, C10 resistant mutant (H)

Compound: C[C@@H]1C[C@@H]([C@H](O)CC2CC(=O)NC(=O)C2)C(=O)[C@@H](C)C1 [Cyclohexamide]
MIC ([1]; Table 2, ATCC201388): <0.06 µg/mL | resistance of C10 resistant mutants to other antifungals, in words [2]: not resistant | MIC [2, 5]: <0.06 µg/mL | MIC [2, 6]: <0.06 µg/mL | MIC [2, 7]: <0.06 µg/mL

penetration of the nail plate, in words [3]: penetrates the nail plate poorly
Compound: Fc1ccc2c(c1)COB2c1ccccc1 [Compound 3, 5-fluoro-1,3-dihydro-1-phenyl-2,1-benzoxaborole]

Compound: C[C@@H]([C@H](N)C(=O)N[C@H](C(=O)O)[C@H]1O[C@@H](n2ccc(=O)[nH]c2=O)[C@H](O)[C@@H]1O)[C@H](O)c1ccc(O)cn1 [Nikkomycin Z]
MIC ([1]; Table 2, ATCC201388): 64 µg/mL (≈ 129 µM) | resistance of C10 resistant mutants to other antifungals, in words [2]: not resistant | MIC [2, 5]: 64 µg/mL (≈ 129 µM) | MIC [2, 6]: 64 µg/mL (≈ 129 µM) | MIC [2, 7]: 64 µg/mL (≈ 129 µM)

Compound: CCC(C)n1ncn(-c2ccc(N3CCN(c4ccc(OCC5COC(Cn6cncn6)(c6ccc(Cl)cc6Cl)O5)cc4)CC3)cc2)c1=O (centres unmarked) [Itraconazole]
MIC [1, 8]: 0.125 µg/mL (≈ 0.177 µM) | MIC [2, 9]: 0.125 µg/mL (≈ 0.177 µM) | MIC [2, 10]: 0.125 µg/mL (≈ 0.177 µM) | MIC [2, 11]: 0.125 µg/mL (≈ 0.177 µM)

Compound: Tunicamycin
MIC ([1]; Table 2, ATCC201388): 8 µg/mL | resistance of C10 resistant mutants to other antifungals, in words [2]: not resistant | MIC [2, 5]: 8 µg/mL | MIC [2, 6]: 8 µg/mL | MIC [2, 7]: 8 µg/mL

Compound: C/C=C/C/C=C/CCC(=O)[C@H]1O[C@H]1C(N)=O [Cerulenin]
MIC ([1]; Saccharomyces cerevisiae, ATCC201388, Table 1, haploid strain ATCC201388, read-out: MIC): 1 µg/mL (≈ 4.48 µM) | MIC [1, 8]: 0.5 µg/mL (≈ 2.24 µM) | resistance of C10 resistant mutants to other antifungals, in words [2]: not resistant | MIC ([2]; Saccharomyces cerevisiae, Table 1, mutant (A), CDC60 N415D): 0.5 µg/mL (≈ 2.24 µM) | MIC ([2]; Saccharomyces cerevisiae, Table 1, mutant (B), CDC60 R316I): 0.5 µg/mL (≈ 2.24 µM) | MIC ([2]; Saccharomyces cerevisiae, Table 1, mutant (C), CDC60 C326F): 0.5 µg/mL (≈ 2.24 µM) | MIC ([2]; Saccharomyces cerevisiae, Table 1, mutant (D), CDC60 G405V): 0.5 µg/mL (≈ 2.24 µM) | MIC ([2]; Saccharomyces cerevisiae, Table 1, mutant (E), CDC60 C326R): 0.5 µg/mL (≈ 2.24 µM) | MIC ([2]; Saccharomyces cerevisiae, Table 1, mutant (F), CDC60 D487G): 0.5 µg/mL (≈ 2.24 µM) | MIC ([2]; Saccharomyces cerevisiae, Table 1, mutant (G), CDC60 L315V): 0.5 µg/mL (≈ 2.24 µM) | MIC ([2]; Saccharomyces cerevisiae, Table 1, mutant (H), CDC60 T314M): 0.5 µg/mL (≈ 2.24 µM) | MIC ([2]; Saccharomyces cerevisiae, Table 1, mutant (I), CDC60 S416L): 1 µg/mL (≈ 4.48 µM) | MIC ([2]; Saccharomyces cerevisiae, Table 1, mutant (J), CDC60 D487N): 1 µg/mL (≈ 4.48 µM) | MIC ([2]; Saccharomyces cerevisiae, Table 1, mutant (K), CDC60 T319I): 1 µg/mL (≈ 4.48 µM) | MIC [2, 9]: 0.5 µg/mL (≈ 2.24 µM) | MIC [2, 10]: 0.5 µg/mL (≈ 2.24 µM) | MIC [2, 11]: 0.5 µg/mL (≈ 2.24 µM)

Compound: OC(Cn1cncn1)(Cn1cncn1)c1ccc(F)cc1F [Fluconazole, reference compound]
MIC ([4]; ATCC201388, CDC60 on pRS425 (20 copies)): 2 µg/mL (≈ 6.53 µM) | MIC ([4]; ATCC201388, pRS425 Plasmid control): 2 µg/mL (≈ 6.53 µM)

Compound: CN(C/C=C/C#CC(C)(C)C)Cc1cccc2ccccc12 [Terbinafine]
MIC [1, 8]: 4 µg/mL (≈ 13.7 µM) | resistance of C10 resistant mutants to other antifungals, in words [2]: not resistant | MIC [2, 9]: 4 µg/mL (≈ 13.7 µM) | MIC [2, 10]: 4 µg/mL (≈ 13.7 µM) | MIC [2, 11]: 4 µg/mL (≈ 13.7 µM)

Compound: Aculeacin A
MIC ([1]; Table 2, ATCC201388): 4 µg/mL | resistance of C10 resistant mutants to other antifungals, in words [2]: not resistant | MIC [2, 5]: 4 µg/mL | MIC [2, 6]: 4 µg/mL | MIC [2, 7]: 4 µg/mL

Compound: C[C@@H]1[C@H](O)[C@@H](C)/C=C/C=C/C=C/C=C/C=C/C=C/C=C/[C@H](O[C@@H]2O[C@H](C)[C@@H](O)[C@H](N)[C@@H]2O)C[C@@H]2O[C@](O)(C[C@@H](O)C[C@@H](O)[C@H](O)CC[C@@H](O)C[C@@H](O)CC(=O)O[C@H]1C)C[C@H](O)[C@H]2C(=O)O [Amphotericin B]
MIC ([1]; Table 2, ATCC201388): 0.125 µg/mL (≈ 0.135 µM) | resistance of C10 resistant mutants to other antifungals, in words [2]: not resistant

melting point: 96 to 98 °C
Compound: CCCCC(=O)c1cccc(COc2ccc3c(c2)COB3O)c1 [C45, 1-(3-((1-hydroxy-1,3-dihydrobenzo[c][1,2]oxaborol-5-yloxy)methyl)phenyl)pentan-1-one]

melting point: 99 to 104 °C
Compound: OB1OCc2ccc(Sc3cccs3)cc21 [C43, 6-(thiophen-2-ylthio)benzo[c][1,2]oxaborol-1(3H)-ol]
